Data published in PubChem BioAssay AID256 (DTP/NCI, 2004).
“And” between values parts separate entries of the source, which are not always exact repeats. Equal values may be shown once. Toxic doses and inconclusive results are not listed. The calls were made as follows: active = survival T/C of 150% or more; inactive = T/C below 125% in these data.

System: CD2F1 mice, L1210 leukemia ip, survival T/C
Experiment: NCI In Vivo Anticancer Drug Screen. Data for tumor model L1210 Leukemia (intraperitoneal) in CD2F1 (CDF1) mice
Conditions: higher = longer survival
Procedure, shortened: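 Antitumor effect is scored in animals hosting a serially transplanted tumor. Values compare compound-dosed animals against vehicle-only controls as a simple quotient.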

[1] = endpoint: mean survival time, dose: 200.0 mg/kg/injection, schedule: Q01DX001 (ip), vehicle: saline with Tween-80
[2] = endpoint: mean survival time, dose: 50.0 mg/kg/injection, schedule: Q01DX009 (ip), vehicle: saline with Tween-80
[3] = endpoint: mean survival time, dose: 100.0 mg/kg/injection, schedule: Q01DX009 (ip), vehicle: saline with Tween-80
[4] = endpoint: mean survival time, dose: 200.0 mg/kg/injection, schedule: Q01DX009 (ip), vehicle: saline with Tween-80
[5] = endpoint: mean survival time, dose: 12.5 mg/kg/injection, schedule: Q01DX009 (ip), vehicle: saline with Tween-80
[6] = endpoint: mean survival time, dose: 25.0 mg/kg/injection, schedule: Q01DX009 (ip), vehicle: saline with Tween-80
[7] = endpoint: mean survival time, dose: 100.0 mg/kg/injection, schedule: Q04DX003 (ip), vehicle: saline with Tween-80
[8] = endpoint: mean survival time, dose: 200.0 mg/kg/injection, schedule: Q04DX003 (ip), vehicle: saline with Tween-80
[9] = endpoint: mean survival time, dose: 400.0 mg/kg/injection, schedule: Q01DX009 (ip), vehicle: saline with Tween-80
[10] = endpoint: mean survival time, dose: 400.0 mg/kg/injection, schedule: Q04DX003 (ip), vehicle: saline with Tween-80
[11] = endpoint: mean survival time, dose: 100.0 mg/kg/injection, schedule: Q04DX002 (ip), vehicle: saline with Tween-80
[12] = endpoint: mean survival time, dose: 200.0 mg/kg/injection, schedule: Q04DX002 (ip), vehicle: saline with Tween-80
[13] = endpoint: mean survival time, dose: 400.0 mg/kg/injection, schedule: Q04DX002 (ip), vehicle: saline with Tween-80
[14] = endpoint: mean survival time, dose: 25.0 mg/kg/injection, schedule: Q01DX009 (ip), vehicle: water
[15] = endpoint: mean survival time, dose: 50.0 mg/kg/injection, schedule: Q01DX009 (ip), vehicle: water
[16] = endpoint: mean survival time, dose: 100.0 mg/kg/injection, schedule: Q01DX009 (ip), vehicle: water
[17] = endpoint: mean survival time, dose: 200.0 mg/kg/injection, schedule: Q01DX009 (ip), vehicle: water

Measured: T/C

Nc1nc(=O)n(CCCOc2ccc([N+](=O)[O-])c(Cl)c2)cc1-c1ccc(Cl)c(Cl)c1
inactive: [1] 90 % of control

c1ccc2c(c1)[nH]c1c2c[n+]2c3c(cccc13)CCC2
inactive: endpoint: mean survival time, dose: 6.25 mg/kg/injection, schedule: Q01DX001 (ip), vehicle: saline 101 % of control | endpoint: mean survival time, dose: 12.5 mg/kg/injection, schedule: Q01DX001 (ip), vehicle: saline 107 % of control

c1cc2c(c(OCC3=NCCN3)c1)CCCC2
inactive: endpoint: mean survival time, dose: 25.0 mg/kg/injection, schedule: Q04DX002 (ip), vehicle: saline 94 % of control | endpoint: mean survival time, dose: 50.0 mg/kg/injection, schedule: Q04DX002 (ip), vehicle: saline 110 % of control

Cc1ccc(NC(=O)OCCOc2ccc(Cl)cc2)cc1C
inactive: [2] 96 % of control | [3] 92 % of control | [4] 87 % of control

O=S=NNc1ccccc1
inactive: [5] 108 % of control | [6] 102 % of control | [2] 88 % of control and 90 % of control | [7] 95 % of control | [8] 89 % of control

O=C(NCCC1CCC2OC2C1)c1ccccc1 (configuration not stated)
inactive: [3] 96 % of control | [7] 107 % of control | [4] 98 % of control | [8] 100 % of control | [9] 96 % of control | [10] 94 % of control

O=C(CNC(=O)NCc1ccco1)N/N=C/c1cc(Br)ccc1O
inactive: [5] 94 % of control | [6] 94 % of control | [2] 96 % of control | [4] 100 % of control

O=[N+]([O-])c1ccc(Cl)c(CCl)c1
inactive: [3] 94 % of control | [7] 100 % of control | [4] 93 % of control | [8] 100 % of control | [10] 102 % of control

CCCCNc1ncnc2snnc12
inactive: endpoint: mean survival time, dose: 100.0 mg/kg/injection, schedule: Q01DX001 (ip), vehicle: Klucel (hydroxypropylcellulose) (HPC) 101 % of control | endpoint: mean survival time, dose: 200.0 mg/kg/injection, schedule: Q01DX001 (ip), vehicle: Klucel (hydroxypropylcellulose) (HPC) 98 % of control | endpoint: mean survival time, dose: 400.0 mg/kg/injection, schedule: Q01DX001 (ip), vehicle: Klucel (hydroxypropylcellulose) (HPC) 104 % of control

CCOC(=O)c1cc(CO)nc2c(Cl)cc(Cl)cc12
inactive: [3] 91 % of control | [7] 93 % of control | [4] 90 % of control | [8] 90 % of control | [9] 90 % of control | [10] 93 % of control

CCOc1ccc(OCC)c(NC(=O)Nc2ccc(OC)cc2)c1
inactive: [11] 89 % of control | [12] 93 % of control | [13] 86 % of control

COC(=O)/C=C/c1ccc(O)cc1
inactive: endpoint: mean survival time, dose: 100.0 mg/kg/injection, schedule: Q01DX001 (ip), vehicle: saline sonified 102 % of control | [11] 101 % of control | endpoint: mean survival time, dose: 200.0 mg/kg/injection, schedule: Q01DX001 (ip), vehicle: saline sonified 102 % of control | [12] 101 % of control | endpoint: mean survival time, dose: 400.0 mg/kg/injection, schedule: Q01DX001 (ip), vehicle: saline sonified 102 % of control | [13] 96 % of control

CC1(C(F)(F)F)CC(=O)NN1 (configuration not stated)
inactive: endpoint: mean survival time, dose: 12.5 mg/kg/injection, schedule: Q01DX009 (ip), vehicle: saline 95 % of control | endpoint: mean survival time, dose: 25.0 mg/kg/injection, schedule: Q01DX009 (ip), vehicle: saline 97 % of control | endpoint: mean survival time, dose: 50.0 mg/kg/injection, schedule: Q01DX009 (ip), vehicle: saline 97 % of control | [7] 97 % of control

C[Si](C)(C)OC1(C#N)C=CC(=O)C=C1
inactive: endpoint: mean survival time, dose: 1.56 mg/kg/injection, schedule: Q01DX001 (ip), vehicle: saline with Tween-80 103 % of control | endpoint: mean survival time, dose: 3.13 mg/kg/injection, schedule: Q01DX001 (ip), vehicle: saline with Tween-80 100 % of control | endpoint: mean survival time, dose: 6.25 mg/kg/injection, schedule: Q01DX001 (ip), vehicle: saline with Tween-80 92 % of control and 95 % of control

O=C(Nc1cccc([N+](=O)[O-])c1)N(c1ccccc1)c1ccccc1
inactive: endpoint: mean survival time, dose: 100.0 mg/kg/injection, schedule: Q01DX001 (ip), vehicle: saline 88 % of control | endpoint: mean survival time, dose: 200.0 mg/kg/injection, schedule: Q01DX001 (ip), vehicle: saline 94 % of control | endpoint: mean survival time, dose: 400.0 mg/kg/injection, schedule: Q01DX001 (ip), vehicle: saline 93 % of control

CNc1ncn(-c2c(C)cccc2C)c(=O)n1
inactive: endpoint: median survival time, dose: 3.12 mg/kg/injection, schedule: Q01DX005 (ip), vehicle: Klucel (hydroxypropylcellulose) (HPC) 101 % of control | endpoint: median survival time, dose: 6.25 mg/kg/injection, schedule: Q01DX005 (ip), vehicle: Klucel (hydroxypropylcellulose) (HPC) 97 % of control | endpoint: median survival time, dose: 12.5 mg/kg/injection, schedule: Q01DX005 (ip), vehicle: Klucel (hydroxypropylcellulose) (HPC) 102 % of control | endpoint: median survival time, dose: 25.0 mg/kg/injection, schedule: Q01DX005 (ip), vehicle: Klucel (hydroxypropylcellulose) (HPC) 100 % of control | endpoint: median survival time, dose: 50.0 mg/kg/injection, schedule: Q01DX005 (ip), vehicle: Klucel (hydroxypropylcellulose) (HPC) 108 % of control | endpoint: median survival time, dose: 50.0 mg/kg/injection, schedule: Q01DX005 (ip), vehicle: saline with Tween-80 119 % of control and 98 % of control and 102 % of control | endpoint: median survival time, dose: 100.0 mg/kg/injection, schedule: Q01DX005 (ip), vehicle: saline with Tween-80 123 % of control and 98 % of control and 110 % of control | endpoint: median survival time, dose: 200.0 mg/kg/injection, schedule: Q01DX005 (ip), vehicle: saline with Tween-80 122 % of control and 107 % of control

O=C([O][Sb]([O]C(=O)C(Cl)Cl)([c]1ccccc1)([c]1ccccc1)[c]1ccccc1)C(Cl)Cl
inactive: [7] 92 % of control | [8] 88 % of control

CN(C)CCSc1cc(O)c2c(c1O)C(=O)c1ccccc1C2=O
inactive: [14] 95 % of control | [15] 98 % of control | [16] 92 % of control | [17] 95 % of control

OC(CI)C1OCOC2COCOC21 (configuration not stated)
inactive: endpoint: mean survival time, dose: 100.0 mg/kg/injection, schedule: Q04DX003 (ip), vehicle: Klucel (hydroxypropylcellulose) (HPC) 102 % of control | endpoint: mean survival time, dose: 200.0 mg/kg/injection, schedule: Q04DX003 (ip), vehicle: Klucel (hydroxypropylcellulose) (HPC) 94 % of control | endpoint: mean survival time, dose: 400.0 mg/kg/injection, schedule: Q04DX003 (ip), vehicle: Klucel (hydroxypropylcellulose) (HPC) 97 % of control

O=c1[nH]nc([O-])c2c1[n+](Cc1ccccc1)cn2Cc1ccccc1
inactive: endpoint: mean survival time, dose: 9.4 mg/kg/injection, schedule: Q01DX005 (ip), vehicle: water 94 % of control | endpoint: mean survival time, dose: 18.8 mg/kg/injection, schedule: Q01DX005 (ip), vehicle: water 98 % of control | endpoint: mean survival time, dose: 37.5 mg/kg/injection, schedule: Q01DX005 (ip), vehicle: water 91 % of control | endpoint: mean survival time, dose: 75.0 mg/kg/injection, schedule: Q01DX005 (ip), vehicle: water 88 % of control

COc1ccc(C(Cn2ccnc2)Sc2ccc(Cl)c(Cl)c2)cc1 (configuration not stated)
inactive: endpoint: mean survival time, dose: 6.25 mg/kg/injection, schedule: Q01DX009 (ip), vehicle: saline with Tween-80 96 % of control and 103 % of control | [5] 103 % of control and 104 % of control | [6] 98 % of control and 101 % of control | [2] 96 % of control and 108 % of control | [3] 101 % of control and 105 % of control

O=c1cc(O)c(Cl)nn1C1OC(CO)C(O)C1O (configuration not stated)
inactive: endpoint: mean survival time, dose: 12.5 mg/kg/injection, schedule: Q01DX009 (ip), vehicle: water 103 % of control | [14] 97 % of control | [15] 100 % of control | [16] 100 % of control | [17] 95 % of control | endpoint: mean survival time, dose: 400.0 mg/kg/injection, schedule: Q01DX009 (ip), vehicle: water 91 % of control

Cc1oc2ncnc(N)c2c1C
inactive: [7] 96 % of control | [8] 100 % of control | [10] 95 % of control

CCCCCC(C)C1=NC(C)(C)CC(C)O1 (configuration not stated)
inactive: endpoint: mean survival time, dose: 5.0 mg/kg/injection, schedule: Q01DX009 (ip), vehicle: saline 94 % of control | endpoint: mean survival time, dose: 10.0 mg/kg/injection, schedule: Q01DX009 (ip), vehicle: saline 95 % of control | endpoint: mean survival time, dose: 20.0 mg/kg/injection, schedule: Q01DX009 (ip), vehicle: saline 97 % of control | endpoint: mean survival time, dose: 100.0 mg/kg/injection, schedule: Q01DX001 (ip), vehicle: saline with Tween-80 97 % of control | [1] 93 % of control

c1ccc(NSc2ccccc2)cc1
inactive: [2] 101 % of control | [3] 101 % of control | [4] 96 % of control

CO[C@@H]1C2=CC=CC=C[C@H]2n2c(=O)n(C)c(=O)n21
inactive: endpoint: median survival time, dose: 37.5 mg/kg/injection, schedule: Q01DX005 (ip), vehicle: other 95 % of control | endpoint: median survival time, dose: 75.0 mg/kg/injection, schedule: Q01DX005 (ip), vehicle: other 100 % of control | endpoint: median survival time, dose: 150.0 mg/kg/injection, schedule: Q01DX005 (ip), vehicle: other 95 % of control
